Measured values from patent US20250049830A1, “PHARMACEUTICAL COMPOSITION FOR PREVENTING OR TREATING CANCER, COMPRISING SGLT-2 INHIBITOR AND GOSSYPOL” (HAIM BIO., LTD., priority 2019, published 2025).
Entries after “also recorded” stand apart in the source; their conditions may differ.

Columns and labels:
Type in all cases: cell-based, human
[1] = system: lung cancer cell line A549; experiment: Cell viability (Cell Counting Kit-8) of lung cancer cell line A549 after drug treatment; conditions: SGLT-2 inhibitor 50 μM, gossypol 5 μM, phenformin 10 μM, FIG. 1c
Experimental: (§1) Each of the cell lines was cultured according to the ATCC guidelines in 10% FBS-containing RPMI 1640, DMEM, or Eagle's MEM medium supplemented with 1% penicillin-streptomycin (Gibco) in a 5% CO2 incubator (HERAcell 150i, Thermo Scientific, Waltham, MA, USA) at 37° C. and was used in the experiment.
The lung cancer cell line A549 cells prepared by the method of Example 1 were seeded into a 96-well plate at a concentration of 1×10^4 cells/well and cultured overnight at 37° C. in a 5% CO2 environment. […]
Thereafter, 100 μL of each cell culture and 10 μL of incubation buffer (CCK) were mixed together, placed in a 96-well plate, and incubated at room temperature for 1 hour, and then the absorbance was measured at a wavelength of 450 nm using a spectrophotometer (Synergy HTX Multi-Reader, BioTek, Winooski, VT, USA). At the same time, the number of cells in each sample was measured with a cell viability assay kit (Cell Counting Kit-8), and the measured value was calculated as a percentage of the number of cells in the negative control group to compare the number of cells between the samples. All experiments were repeated several times and the measured values were averaged.

[2] = system: pancreatic cancer cell line Mia Paca-2; experiment: Cell viability (Cell Counting Kit-8) of pancreatic cancer cell line Mia Paca-2 after drug treatment; conditions: SGLT-2 inhibitor with gossypol and/or phenformin, FIGS. 2b, 2c
Experimental: as §1
At the same time, the number of cells in each sample was measured with a cell viability assay kit (Cell Counting Kit-8), and the measured value was calculated as a percentage of the number of cells in the negative control group to compare the number of cells between the samples. All experiments were repeated several times and the measured values were averaged. […] The numerical values on the drawings according to all examples below are expressed as mean±standard error of the mean (SEM), and * indicates statistical significance (**P<0.01, ***P<0.001).
According to the methods of Example 1 and Example 2, the pancreatic cancer cell line Mia Paca-2 cells were cultured, and then each drug was administered to the cells, followed by analysis of the cell viability.

[3] = system: brain cancer cell line U87; experiment: Cell viability (Cell Counting Kit-8) of brain cancer cell line U87 after drug treatment; conditions: SGLT-2 inhibitor with gossypol and phenformin, FIGS. 3b, 3c
Experimental: The present inventors obtained the human lung cancer cell line A549, the pancreatic cancer cell line Mia Paca-2, the brain cancer cell line U87, and the colon cancer cell line SW480 from the American Type Culture Collection (ATCC). Each of the cell lines was cultured according to the ATCC guidelines in 10% FBS-containing RPMI 1640, DMEM, or Eagle's MEM medium supplemented with 1% penicillin-streptomycin (Gibco) in a 5% CO2 incubator (HERAcell 150i, Thermo Scientific, Waltham, MA, USA) at 37° C. and was used in the experiment.
At the same time, the number of cells in each sample was measured with a cell viability assay kit (Cell Counting Kit-8), and the measured value was calculated as a percentage of the number of cells in the negative control group to compare the number of cells between the samples. All experiments were repeated several times and the measured values were averaged.
According to the methods of Example 1 and Example 2, the brain cancer cell line U87 cells were cultured, and then each drug was administered to the cells, followed by analysis of the cell viability.

[4] = system: U87 tumor spheroids; experiment: Tumor spheroid size/diameter of U87 cell line after drug administration; conditions: for size of the tumor spheroid cells (cell photographs): 14 days, gossypol 5 μM, phenformin 10 μM; for size of the cells (cell photographs): SGLT-2 inhibitor alone or in combination with gossypol and phenformin, FIG. 9
Experimental: The U87 cell line cells prepared according to the method of Example 1 were seeded into a 96-well plate at a density of 1.0×10^2 cells/well in DMEM media containing 2% Matrigel (Corning, NY, USA), and stabilized in a 5% CO2 incubator at 37° C. for 3 days to form tumor spheroids. After stabilization, the cells were cultured in a 5% CO2 incubator at 37° C. for 14 days. […] Referring to FIGS. 6b, 7b and 8b, the rate of change in diameter of the spheroid in the graph was calculated as a percentage based on the change in the average diameter after administration of each drug compared to the average diameter of tumor spheroid cells seeded in the 96-well plate.

[5] = system: lung cancer line A549 cells; experiment: Oxygen consumption rate (OCR) during mitochondrial respiration, Seahorse XF24, A549; conditions: SGLT-2 inhibitor 50 μM, gossypol 5 μM, phenformin 10 μM, alone or in combination, overnight, FIG. 10
Experimental: In order to measure mitochondrial respiration, which is the main energy metabolic process of cells, the present inventors analyzed cellular oxygen consumption rate (OCR) by measuring intracellular oxygen concentration. The oxygen consumption rate that occurs during energy metabolism can be a measure of how actively cancer cell division occurs during the metabolic process of cancer cells. 1 mL of XF Calibrant buffer (Agilent Technologies) was added to a sensor cartridge (Agilent Technologies, Palo Alto, CA, USA) and incubated in a non-CO2 incubator overnight at 37° C. […] In addition, the XF24 microplate was placed in the Agilent seahorse XF24 (Agilent Technologies) instrument, and OCR was measured. Here, the measured values were compared with percentage values based on picomoles per minute (pM/min).

[6] = Comparative Example 1: canagliflozin 50 μM, FIG. 6a
[7] = Comparative Example 3: empagliflozin 75 μM, FIG. 8a

Row | SMILES | synergistic effect when administered in combination with gossypol and phenformin [1] | cancer therapeutic effect of co-administration compared to SGLT-2 inhibitor alone [2] | cancer therapeutic effect of co-administration compared to SGLT-2 inhibitor alone [3] | size of the tumor spheroid cells (cell photographs) [4, 6] | size of the cells (cell photographs) [4] | size of the tumor spheroid cells (cell photographs) [4, 7] | oxygen consumption rate [5] | size of the tumor spheroid cells (cell photographs) ([4]; Comparative Example 2: dapagliflozin 75 μM, FIG. 7a)
1 | Cc1ccc([C@@H]2O[C@H](CO)[C@@H](O)[C@H](O)[C@H]2O)cc1Cc1ccc(-c2ccc(F)cc2)s1 [canagliflozin] | highest synergistic effect | more effective | better effect | decreased | decreased compared to that in the control group; also recorded: most significant reduction in the cell size |  |  | 
2 | OC[C@H]1O[C@@H](c2ccc(Cl)c(Cc3ccc(O[C@H]4CCOC4)cc3)c2)[C@H](O)[C@@H](O)[C@@H]1O [empagliflozin] |  |  |  |  | decreased compared to that in the control group | decreased | also low | 
3 | [H]/N=C(/N)N/C(=N/[H])NCCc1ccccc1 [phenformin] |  |  |  | decreased |  | decreased |  | decreased
